Results reported in publication PMC5397059, “Design, synthesis and structure-activity relationship study of wollamide B; a new potential anti TB agent” (PLoS ONE, 2017).
≈ marks a conversion by molar mass, not a printed value. Non-standard residues stand in square brackets, D forms with d. Residues, ends and D or L forms follow the SMILES beside them. dPhe(4-Cl) = N[C@H](Cc1ccc(Cl)cc1)C(=O)O; NMeN = CN[C@@H](CC(N)=O)C(=O)O; NMeL = CN[C@@H](CC(C)C)C(=O)O; dNMeL = CN[C@H](CC(C)C)C(=O)O; NMeV = CN[C@H](C(=O)O)C(C)C; dOrn = NCCC[C@@H](N)C(=O)O

How the values were obtained:
[1] = Intrinsic clearance (CLint) assay, mouse liver microsomes; type: in vitro ADME; conditions: for % LBF Mouse: liver blood flow; for CLint Mouse: mouse liver microsomes; for half-life at 0.5 µM: mouse, pooled mouse liver microsomes, pH 7.4, read-out: Microsomal t1/2 Mouse; for CLpred Mouse: predicted metabolic clearance
Experimental: (§1) Pooled mouse and human liver microsomes are purchased from Xenotech. Microsomes (final protein concentration 0.5 mg/mL, MgCl2 (final concentration = 5 mM) and test compound (final substrate concentration = 0.5] M; final DMSO concentration = 0.5%) in 0.1 M phosphate buffer pH 7.4 are pre-incubated at 37°C prior to the addition of NADPH (final concentration = 1 mM) to initiate the reaction. The final incubation volume is 600 μL.
(§2) Control incubation is included for each compound tested where 0.1 M phosphate buffer pH 7.4 is added instead of NADPH (minus NADPH). One control compound is included with each species. All incubations are performed singularly for each test compound. Each compound is incubated for 45 minutes and samples (100 μL) of incubate are taken at 0, 5, 15, 30 and 45 min. The control (minus NADPH) is sampled at 30 min only. The reactions are stopped by the addition of sample to 200 μL Acetonitrile: Methanol 3:1 containing internal standard. The terminated samples are centrifuged at 2,500 rpm for 20 min at 4°C to precipitate the protein. Quantitative analysis: following protein precipitation, the samples were analyzed using specific LC-MS/MS conditions. Data analysis: from a plot of ln peak area ratio (compound peak area/internal standard peak area) against time, the gradient of the line was determined. Subsequently, half-life and intrinsic clearance were calculated using the equations below: Eliminationrateconstant(K)=(−gradient) Halflife(t1/2)(min)=0.693/K Cli(mL/min/gprotien)=V×0.693/t1/2 WhereV=Incubationvolume(mL/gmicrosomalprotien)

Mtb H37Rv = conditions: for MIC against Mtb H37Rv: duplicate, analogues
Chrom logD assay = type: physicochemical; conditions: reversed phase HPLC column (Gemini NX C18), pH 7.4; read-out: Log D
Experimental: The Chromatographic Hydrophobicity Index (CHI) values were measured using a reversed phase HPLC column (50 x 2 mmx 3 μMGemini NX C18, Phenomenex, UK) with fast acetonitrile gradient at starting mobile phase of 100% pH = 7.4 buffer. CHI values are derived directly from the gradient retention times by using a calibration line obtained for standard compounds. The CHI value approximates to the volume % organic concentration when the compound elutes. CHI is linearly transformed into ChromlogD by the formula: ChromlogD=0.0857CHI−2.00
The average error of the assay is ±3 CHI unit or ±0.25 ChromlogD.

[2] = Artificial membrane permeability assay; type: in vitro ADME; conditions: PAMPA, pH 7.4; passive artificial membrane permeability; read-out: Permeability
Experimental: A 8% L-a-phosphatidylcholine (EPC) in 1% cholesterol decane solution and a 1.8% EPC in cholesterol decane solution were prepared. The lipid solution was then aliquoted into 4 mL capped vials, sealed with parafilm and stored in-20°Cfreezer. The lipid solution was then transferred from 4 mL vial into 96-well half area plate (130μL/well) for daily assay usage. An additional 50 mM phosphate buffer with 0.5% encapsin, pH at 7.4 was prepared. The assay was run by the Biomek FX and Biomek software. The assay procedure is written under the Biomek software. For one batch assay, it can test two 96-well sample plates with at least one standard on each sample plate. The total assay time was about 4 hours. 3.5 μL of lipid solution were added to the filler plate, shaken for 12 seconds, and 250 μL of buffer were added to donor side and 100 μL to the receiver side. The assay plate was shaken for 45 min before adding the compounds. The test compounds (2.5 μL) were added to the donor side. The assay was run as replicates: Assay plates1 and 2 tested the sample plate 1; assay plates 3 and 4 tested the sample plate 2. The assay plates were then incubated and shaken for 3 hours at room temperature.
The assay samples were transferred to the HPLC analysis plates and 100 μL of receiver solution were aspirated and transferred to the receiver for analysis. Similarly, another 100 μL from the donor solution were transferred to the donor analysis plate.
Compound concentration was measured by HPLC at different time-points and permeability was established as nm/sec.

[3] = Intrinsic clearance (CLint) assay, human liver microsomes; type: in vitro ADME; conditions: for CLint Human: human liver microsomes; for half-life at 0.5 µM: human, pooled human liver microsomes, pH 7.4, human liver microsomes, read-out: Microsomal t1/2 Human; for % LBF Human: liver blood flow; for CLpred Human: predicted metabolic clearance
Experimental: as §1, §2

human serum albumin = human serum albumin (Homo sapiens, UniProt P02768); test: Human serum albumin (HSA) binding assay; type: in vitro ADME; conditions: human serum albumin binding
Experimental: HSA binding assay was performed according to the method described by Valko K, et al. The basic principle of the measurements is the determination of gradient retention times of compounds on immobilized HSA column and converting these retention times to the appropriate property values using calibration. The peaks are detected and identified by UV. Calibration sets of compounds are measured before each run for which the HSA binding values are known. The retention times of the calibration set of compounds are plotted against these known values. The slope and the intercept of the obtained straight lines are used to calculate the HSA binding for the unknown compounds.

[4] = Chemi-Luminescent Nitrogen Detection (CLND) kinetic solubility assay; type: physicochemical; conditions: phosphate buffered saline, pH 7.4; kinetic aqueous solubility by CLND; read-out: Solubility
Experimental: GSK in-house kinetic solubility assay: 5 μL of 10mM DMSO stock solution diluted to 100 uL with pH7.4 phosphate buffered saline, equilibrated for 1 hour at room temperature, filtered through Millipore Multiscreen HTS-PCF filter plates (MSSL BPC).
The filtrate is quantified by suitably calibrated flow injection CLND. The standard error of the CLND solubility determination is ±30 μM, the upper limit of the solubility is 500 μM when working from 10 mM DMSO stock solution.

human serum albumin, sequence (P02768 25-609): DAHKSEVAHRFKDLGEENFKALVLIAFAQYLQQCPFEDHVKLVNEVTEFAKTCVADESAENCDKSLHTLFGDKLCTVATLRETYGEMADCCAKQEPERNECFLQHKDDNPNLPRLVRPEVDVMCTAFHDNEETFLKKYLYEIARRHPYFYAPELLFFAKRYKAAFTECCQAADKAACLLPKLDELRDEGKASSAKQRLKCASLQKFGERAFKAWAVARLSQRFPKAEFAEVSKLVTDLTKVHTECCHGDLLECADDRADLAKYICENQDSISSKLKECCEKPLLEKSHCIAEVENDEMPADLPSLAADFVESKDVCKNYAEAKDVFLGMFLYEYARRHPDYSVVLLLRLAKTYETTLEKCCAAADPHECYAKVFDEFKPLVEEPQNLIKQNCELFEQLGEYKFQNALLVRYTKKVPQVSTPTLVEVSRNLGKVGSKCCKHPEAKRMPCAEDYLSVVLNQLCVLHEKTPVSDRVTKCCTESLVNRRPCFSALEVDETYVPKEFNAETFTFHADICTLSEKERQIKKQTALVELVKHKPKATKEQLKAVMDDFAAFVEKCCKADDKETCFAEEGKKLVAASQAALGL

Compound | % LBF Mouse [1] [%] | CLint Mouse [1] [mL/min/g tissue] | half-life at 0.5 µM [1] [min] | antimycobacterial activity against Mtb H37Rv (Mtb H37Rv; at the maximum dose tested) | MIC against Mtb H37Rv (Mtb H37Rv) [µM] | chromatographic logD (Chrom logD assay) | Papp at 3 h [2] [×10⁻⁶ cm/s] | CLint Human [3] [mL/min/g tissue] | half-life at 0.5 µM [3] [min] | % LBF Human [3] [%] | CLpred Human [3] [mL/min/kg] | % HSA (human serum albumin) [%] | solubility kinetic at 1 h [4] [µg/mL] | CLpred Mouse [1] [mL/min/kg]
CSCC[C@@H]1NC(=O)[C@@H](CC(C)C)NC(=O)[C@H](CC(C)C)NC(=O)[C@H](Cc2c[nH]c3ccccc23)NC(=O)[C@@H](CCCN)NC(=O)[C@H](CC(N)=O)NC1=O [Compound 8c] (cyclo(L[dL]MN[dOrn]W)) | <16.30 | <0.48 | > 139 | complete loss of activity | >80 | 1.78 | < 1 | 1.79 | 30.7 | 70.90 | 12.76 | 73.79 | ≥ 164 | 
CC[C@H](C)[C@@H]1NC(=O)[C@H]([C@@H](C)CC)NC(=O)[C@@H](CC(C)C)NC(=O)[C@H](CC(C)C)NC(=O)[C@H](Cc2c[nH]c3ccccc23)NC(=O)[C@@H](CCCN)NC1=O [Compound 12c] (cyclo(II[dOrn]WL[dL])) | <16.39 | <0.48 | > 139 |  | 3.1 (≈ 2.33 µg/mL) | 2.94 | 1.9 | 5.93 | 9.28 | 88.98 | 16.02 | 96.06 | ≥ 206 | <20.50
CC(C)C[C@H]1NC(=O)[C@@H](Cc2ccc(Cl)cc2)NC(=O)[C@H](Cc2c[nH]c3ccccc23)NC(=O)[C@@H](CCCN)NC(=O)[C@H](CC(N)=O)NC(=O)[C@H](C(C)C)NC1=O [Compound 17c] (cyclo(N[dOrn]W[dPhe(4-Cl)][dL]V)) | 17.9 | 0.54 | 124 |  | 30 (≈ 24.3 µg/mL) | 2.12 | 1.7 | <0.40 | > 139 | <35.08 | <6.35 | 93.83 | ≥ 230 | 22.60
CC[C@H](C)[C@@H]1NC(=O)[C@@H](Cc2ccc(Cl)cc2)NC(=O)[C@H](CC(C)C)NC(=O)[C@H](Cc2c[nH]c3ccccc23)NC(=O)[C@@H](CCCN)NC(=O)[C@@H](CCCN)NC1=O [Compound 18c] (cyclo(I[dOrn][dOrn]WL[dPhe(4-Cl)])) | 28.4 | 0.98 | 67.9 |  | 17.5 (≈ 14.4 µg/mL) |  | 8 | 1.06 | 51.7 | 59.15 | 10.65 | 98.70 | 7 (≈ 8.51 µM) | 35.80
CC(C)C[C@H]1NC(=O)[C@H](CC(C)C)N(C)C(=O)[C@H](Cc2c[nH]c3ccccc23)NC(=O)[C@@H](CCCN)NC(=O)[C@H](CC(N)=O)N(C)C(=O)[C@H](C(C)C)NC1=O [Compound 23c] (cyclo([NMeL][dL]V[NMeN][dOrn]W)) | 30.00 | 1.06 | 63 |  |  | 2 | < 1 | 3.19 | 17.2 | 81.29 | 14.63 | 82.21 | ≥ 174 | 37.80
CC(C)C[C@H]1NC(=O)[C@H](CC(C)C)N(C)C(=O)[C@H](Cc2c[nH]c3ccccc23)NC(=O)[C@@H](CCCN)NC(=O)[C@H](CC(N)=O)NC(=O)[C@H](C(C)C)N(C)C1=O [Compound 24c] (cyclo(N[dOrn]W[NMeL][dL][NMeV])) | 42.0 | 1.79 | 15.7 |  |  | 2.18 | < 1 | 3.51 | 37.3 | 82.70 | 14.90 | 87.02 | ≥ 217 | 52.90
CC(C)C[C@@H]1NC(=O)[C@H](Cc2c[nH]c3ccccc23)NC(=O)[C@@H](CCCN)NC(=O)[C@H](CC(N)=O)N(C)C(=O)[C@H](C(C)C)NC(=O)[C@@H](CC(C)C)N(C)C1=O [Compound 25c] (cyclo(L[dNMeL]V[NMeN][dOrn]W)) | <16.3 | <0.48 | > 139 |  |  | 2.25 | < 1 | <0.40 | > 139 | <35.08 | <6.35 | 82.97 | ≥ 221 | <20.50
